Data: patent US20240140944A1, “NOVEL NAPHTHYRIDINONE DERIVATIVE HAVING INHIBITORY ACTIVITY AGAINST ECTONUCLEOTIDE PYROPHOSPHATASE-PHOSPHODIESTERASE AND USE THEREOF” (TXINNO BIOSCIENCE INC., priority 2020, published 2024)
Structures can show the parent of a compound that is named as a salt.

What was measured:
[1] = test system: interferon regulatory factor 3 (IRF3) in HCT116-Dual cells; assay: HCT116-Dual Cell Luciferase Assay (ISG54 promoter, IRF3 activity); assay type: cell-based; conditions: ENPP1 inhibitor usually 10 μM plus cGAMP 10 μM, 48 hours, Lucia luciferase
From the text: HCT116-Dual™ cells express genes encoding luciferase secreted under the control of the interferon-stimulated gene 54 (ISG54) promoter along with five interferon-stimulated response elements. The HCT116-Dual™ cell line was used to measure and monitor the activity of interferon regulatory factor 3 (IRF3), which induces production of type I interferon and relates to downstream signaling, and Lucia secreted in the culture medium was used to generate luminescence in a luciferase reaction.
HCT116-Dual™ cells were cultured at 2×10^4 cells/well (93.4 μL) in a 96-well plate for one day in a DMEM medium containing 10% FBS and 25 mM HEPES (pH 7.2-7.5). The cells were treated with 3.3 μL of ENPP1 inhibitor (usually 10 μM) and then 3.3 μL of cGAMP (10 μM) to set the final volume to 100 μL (The final fraction of DMSO was 0.1%). The cells treated with ENPP1 inhibitor and cGAMP were cultured at 37° C. for 48 hours and 50 μL of Quanti-Luc reaction solution was added to 20 μL of cell culture medium to measure luciferase activity. The increase in interferon regulatory factor 3 (IRF3) by the compound compared to cGAMP was determined as fold.

[2] = biological target: T1, human recombinant ENPP1 enzymes (Homo sapiens, UniProt P22413); assay: ENPP1 Enzyme Assay with cGAMP Substrate (AMP-Glo); assay type: biochemical; conditions: human recombinant ENPP1 3 ng/reaction, cGAMP 5 μM, 37° C. 90 minutes, average of two or more tests; read-out: Enzymatic activity IC50
T1 construct: purchased R & D systems
T1 sequence (P22413 1-925): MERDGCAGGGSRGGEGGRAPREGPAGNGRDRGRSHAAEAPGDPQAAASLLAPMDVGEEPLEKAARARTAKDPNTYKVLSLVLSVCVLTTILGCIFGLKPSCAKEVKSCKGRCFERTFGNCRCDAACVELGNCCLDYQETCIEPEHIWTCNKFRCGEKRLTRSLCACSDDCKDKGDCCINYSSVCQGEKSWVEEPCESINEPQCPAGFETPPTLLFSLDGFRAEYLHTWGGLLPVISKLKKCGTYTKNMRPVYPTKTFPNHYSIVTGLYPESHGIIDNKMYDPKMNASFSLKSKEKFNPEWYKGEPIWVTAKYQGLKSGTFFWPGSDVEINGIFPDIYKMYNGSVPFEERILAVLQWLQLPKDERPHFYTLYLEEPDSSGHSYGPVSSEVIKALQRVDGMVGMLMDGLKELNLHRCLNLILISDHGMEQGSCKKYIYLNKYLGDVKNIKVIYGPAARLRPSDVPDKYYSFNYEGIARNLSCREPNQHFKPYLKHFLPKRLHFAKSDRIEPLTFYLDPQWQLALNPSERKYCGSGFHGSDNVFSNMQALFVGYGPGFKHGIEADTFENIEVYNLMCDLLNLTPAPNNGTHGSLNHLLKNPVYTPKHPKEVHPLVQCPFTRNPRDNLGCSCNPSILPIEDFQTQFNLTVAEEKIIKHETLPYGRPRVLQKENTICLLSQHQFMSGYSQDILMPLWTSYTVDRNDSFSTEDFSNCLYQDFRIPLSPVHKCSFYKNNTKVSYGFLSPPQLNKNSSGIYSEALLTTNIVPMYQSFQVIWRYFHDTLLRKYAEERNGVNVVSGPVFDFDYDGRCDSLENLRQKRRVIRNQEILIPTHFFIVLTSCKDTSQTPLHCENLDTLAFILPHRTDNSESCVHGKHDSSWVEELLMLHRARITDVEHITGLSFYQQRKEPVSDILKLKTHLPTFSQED
Method in brief: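 Human recombinant ENPP1 (3 ng/reaction) preincubated 5–10 min at RT with inhibitor, then reacted with 5 µM cGAMP for 90 min at 37 °C in 50 mM Tris pH 8.5, 250 mM NaCl, 0.5 mM CaCl2, 1 µM ZnCl2, 1% DMSO. AMP produced read by AMP-Glo luminescence; IC50 from 3-parameter fit, averaged over ≥2 runs.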

Row | SMILES | Cellular activity: increase in IRF3 by the compound compared to cGAMP, as fold [1] | IC50 [2]
1 | Cl.NCc1ccc(-c2ccnc3[nH]c(=O)ccc23)cc1 [Example 10, 5-(4-(aminomethyl)phenyl)-1,8-naphthyridin-2(1H)-one hydrochloride] | B (1< Fold <2) | < 1000 nM
2 | NS(=O)(=O)Nc1ccc(Nc2ccnc3[nH]c(=O)ccc23)cc1 [Example 97, N-(4-((7-oxo-7,8-dihydro-1,8-naphthyridin-4-yl)amino)phenyl)sulfamide dihydrochloride] | B (1< Fold <2) | < 1000 nM
3 | CCNCc1ccc(-c2ccnc3[nH]c(=O)ccc23)cc1F.Cl [Example 24, 5-(4-((ethylamino)methyl)-3-fluorophenyl)-1,8-naphthyridin-2(1H)-one hydrochloride] | B (1< Fold <2) | > 10000 nM
